Laboratory results as given in PubChem BioAssay AID493191 (Broad Institute, 2011).

Each molecule was assayed on MALME3 melanoma viability, CellTiter-Glo luminescence, 24 h (assay: MALME3 melanoma cell viability loss, dose response, orthogonal assay for MITF inhibitor project, CellTiter-Glo, cherry-picked (AID 493191)).

In order of falling AC50:
1. C/C(=N/NC(=O)C(O)(c1ccccc1)c1ccccc1)c1ccc([N+](=O)[O-])o1  34.1 µM
2. CC1(C(=O)N/N=C/c2ccc([N+](=O)[O-])o2)CC1(Br)Br (stereo not drawn)  34 µM
3. COc1ccc2oc(C(=O)Nc3ccc(S(=O)(=O)N(C)C4CCN(C)CC4)cc3)c(C)c2c1  33.5 µM
4. CCCOCc1ccc(O)c2ncccc12  32.2 µM
5. O=C1Nc2ccc(Br)cc2/C1=C/C(=O)c1ccc2c(c1)OCO2  32 µM
6. CC(NC(=O)c1ccc([N+](=O)[O-])o1)C12CC3CC(CC(C3)C1)C2 (stereo not drawn)  31.9 µM
7. O=c1c(Cl)c(Cl)cnn1Cc1ccc(F)cc1  31.6 µM
8. COc1cccc(C(=O)Oc2c(CN3CCOCC3)cc(Cl)c3cccnc23)c1  30.7 µM
9. CCN(CC)CCNC(=O)C1CCN(S(=O)(=O)c2c(C)noc2/C=C/c2ccccc2F)CC1  30.4 µM
10. O=C(N/N=C/c1ccc([N+](=O)[O-])s1)c1cccc(Br)c1  29.9 µM
11. O=C(N/N=C/c1cccc2cccnc12)c1ccccc1O  29.7 µM
12. CN1CCC(N(C)C(=O)/C=C/c2cn(-c3ccccc3)nc2-c2cccs2)CC1  29.7 µM
13. CC(C)C1CC(CCNCc2ccc(N(C)C)cc2)(c2ccccc2)CCO1 (stereo not drawn)  29.5 µM
14. O=C1C=CC(=C(c2ccc(O)cc2)c2ccc(O)cc2)C=C1  29.4 µM
15. Cc1ccc(NC(=O)c2ncn(CCCN[C@H](C)c3cccc4ccccc34)n2)cc1C  29.2 µM
16. C#CCCc1ccccc1/C=[N+](/C)[O-]  28.8 µM
17. CCN(CC)CCn1nc2c3c(cccc3c1=O)-c1ccccc1-2  28.4 µM
18. Cc1cc(C)c2c(N)c3cccc(C)c3nc2n1  27.9 µM
19. CCn1c(=O)c([N+](=O)[O-])c(Cl)c2ccccc21  27.9 µM
20. CC1CCCCC1NC(=O)/C(C#N)=C/C=C/c1ccccc1[N+](=O)[O-] (stereo not drawn)  27.5 µM
21. CC(C)(C)c1ccc(OCCCNCc2ccccc2)cc1  27.4 µM
22. N#CC(C#N)=C1C=CC=CN1/C(=C\c1ccco1)C(=O)c1ccc(Cl)cc1  27.3 µM
23. COc1cc(NC(=O)COc2ccccc2[N+](=O)[O-])ccc1NC(=O)c1cccs1  26.7 µM
24. O=C(Cn1ncc(Cl)c(Cl)c1=O)c1ccc(Cl)cc1  26.5 µM
25. O=C(CNC(=O)c1ccccc1)N/N=C/c1ccc([N+](=O)[O-])s1  26.2 µM
26. CCN1CCCC1CNC(=O)c1ccc2c(c1)NC(=O)/C(=C\c1ccc(C)cc1)S2 (stereo not drawn)  26 µM
27. CC1=NNC(=O)/C1=C\c1cn(-c2ccccc2)nc1-c1ccc(F)cc1  25.9 µM
28. O=C(CCl)N1CCN(S(=O)(=O)c2ccc3c(c2)CCC3)CC1  25.5 µM
29. O=C1/C(=C/c2ccccc2[N+](=O)[O-])COc2ccccc21  25.3 µM
30. O=C(Cn1ncc(Cl)c(Cl)c1=O)Nc1ccc2c(c1)OCO2  25.1 µM
31. O=C(CNC(=O)c1cccc(F)c1)N/N=C/c1ccc([N+](=O)[O-])s1  25.1 µM
32. O=C(Cn1ncc(Cl)c(Cl)c1=O)NC1CCCCC1  24.8 µM
33. Oc1cc(NCCN2CCOCC2)cc2cccnc12  24.6 µM
34. Cc1oc(-c2ccc(Cl)cc2)nc1CN1CCC(C(=O)NCCCN2CCCC(C)C2)CC1 (stereo not drawn)  24.4 µM
35. CC(C)C(CCNC1CCN(C)CC1)c1ccc(Cl)cc1 (stereo not drawn)  24.3 µM
36. CC[n+]1c(-c2ccccc2)c2cc(N)ccc2c2ccc(N)cc21  23.3 µM
37. Cc1ccc(C(O)(c2ccc(C)c(C)c2)C2CN3CCC2CC3)cc1C (stereo not drawn)  22.7 µM
38. Cc1ccc(C(=O)N/N=C/c2ccc([N+](=O)[O-])s2)cc1  22.6 µM
39. COc1ccc(-c2nn(-c3ccccc3)cc2/C=N/N=C(N)N)cc1OC  21.9 µM
40. CC1CCC/C=C/C(=O)c2c(O)cc(O)cc2CC(=O)O1 (stereo not drawn)  21.2 µM
41. CN(C)c1nc(C=C(C#N)C#N)c(Cl)n1-c1ccc(F)cc1  21.2 µM
42. CN(C)S(=O)(=O)c1ccc(-c2csc(N/N=C/c3ccc(O)cc3)n2)cc1  21.2 µM
43. COc1ccccc1OCC(=O)N/N=C/C=C/c1ccc([N+](=O)[O-])o1  20.6 µM
44. CC1CCCC(NCC(O)COC(c2ccc(F)cc2)c2ccc(F)cc2)C1C (stereo not drawn)  20.5 µM
45. O=C(NC1=C(Nc2ccc(Cl)cc2)C(=O)c2ccccc2C1=O)c1ccccc1  20.3 µM
46. CS(=O)(=O)c1ccc(S(=O)CC(=O)OCc2ccccc2)c([N+](=O)[O-])c1 (stereo not drawn)  20 µM
47. CCOc1ccc(-n2c(C)cc(C(=O)CCl)c2C)cc1  19.9 µM
48. COc1cc(/C=N/N=C(N)N)ccc1OCc1ccc(Cl)cc1  19.9 µM
49. Cn1c(SC2=CS(=O)(=O)c3ccccc32)nc2ccccc21  19.7 µM
50. CC1CN(C(=O)CCC(=O)NCCCN2CCC(Cc3ccccc3)CC2)c2cc(Cl)ccc2O1 (stereo not drawn)  19.4 µM
51. CCOC(=O)c1c(C)oc2c(F)c(F)c(F)c(F)c2c1=O  19.4 µM
52. O=C1c2ccccc2C(=O)c2c1ncn2-c1ccccc1  19.2 µM
53. CCOc1cc(/C=N/N=C(N)N)ccc1OCc1ccc(Cl)cc1  18.8 µM
54. Cc1ccc(C)c(NC(=O)/C(C#N)=C/c2cn(CC(=O)NCc3ccco3)c3ccccc23)c1  18.6 µM
55. CCCCN(C)CC(O)Cn1cc(/C=C/C(=O)c2cccs2)c2ccccc21 (stereo not drawn)  18.6 µM
56. CC(C)(C)c1ccc(Cn2c(=N)n(CC(O)c3ccco3)c3ccccc32)cc1 (stereo not drawn)  18.3 µM
57. O=C(Nc1cc(-c2nc3ncccc3o2)ccc1Cl)c1ccc([N+](=O)[O-])o1  18.2 µM
58. O=C1C(Nc2ccccc2)=C(N2CCCCC2)C(=O)c2ccccc21  18.2 µM
59. Cc1ccc2sc(N(CCCN(C)C)C(=O)c3ccc(S(=O)(=O)N(C)C4CCCCC4)cc3)nc2c1C  18.1 µM
60. CC(C)(C)C(=O)Cn1ncc(Cl)c(Cl)c1=O  18 µM
61. COc1cccc(CNCCc2c[nH]c3ccccc23)c1OCc1ccccc1  17.9 µM
62. CCN(CC)CCNC(=O)c1ccc(NC(=O)c2cn(-c3ccccc3)nc2-c2cccs2)cc1  17.8 µM
63. CC(C)(C)C(=O)Cn1ncc(Br)c(Br)c1=O  17.7 µM
64. COC(=O)C1=C(C)N(Cc2ccccc2)C(=NCC(C)C)N[C@H]1c1cccc(C(F)(F)F)c1  16.9 µM
65. O=C(CNc1cccc([N+](=O)[O-])c1)N/N=C/c1ccc([N+](=O)[O-])o1  16.9 µM
66. COc1ccc(C(CCNC(C)c2ccccc2)c2ccc(F)cc2)cc1 (stereo not drawn)  16.7 µM
67. O=C(Nc1ccc(N2CCN(C(=O)c3ccc(Cl)cc3)CC2)cc1)c1ccc([N+](=O)[O-])o1  16.7 µM
68. CCOC(=O)CSC1=NC(=O)/C(=C\c2ccc(Cl)cc2)S1  16.2 µM
69. Cc1cc2ncn(/N=C/c3ccc([N+](=O)[O-])o3)c2cc1C  15.9 µM
70. O=C(Nc1cccc(S(=O)(=O)N2CCCCC2)c1)c1ccc([N+](=O)[O-])o1  15.9 µM
71. COc1ccc(N(Cc2cc(=O)[nH]c3ccccc23)C(=O)CCl)cc1  15.8 µM
72. Cc1ccc(NC(=O)Cn2ncc(Cl)c(Cl)c2=O)cc1S(=O)(=O)N1CCCCC1  15.8 µM
73. C=CCNC1=C(Cl)C(=O)c2ccccc2C1=O  15.6 µM
74. O=C1CN(C(=O)Cn2ncc(Cl)c(Cl)c2=O)c2ccccc2N1  15.4 µM
75. CCNC1=C(Cl)C(=O)c2ccccc2C1=O  15.3 µM
76. O=C(CCl)Nc1cccc(-c2cnc3ccccc3n2)c1  15.2 µM
77. CCCCCCCNC(=O)C1(CC2CC(c3ccc(Cl)cc3)=NO2)CCNCC1 (stereo not drawn)  15.2 µM
78. O=C(N/N=C/c1ccc(O)c2ncccc12)c1cccc(Br)c1  14.7 µM
79. CC(C)Oc1ccc(C(CCN)C2CCCCC2)cc1 (stereo not drawn)  14.6 µM
80. COc1ccc(-c2cc3c(nn2)-c2ccccc2C3=O)cc1  14.5 µM
81. CCN1CCN(c2ccc(NC(=O)c3ccc([N+](=O)[O-])o3)cc2Cl)CC1  14.4 µM
82. CCCC(=O)N1CCN(c2ccc(NC(=O)c3ccc([N+](=O)[O-])o3)cc2Cl)CC1  14.4 µM
83. Cc1ccc(C(=O)N/C(=C\c2ccc(-c3ccc(Br)cc3)o2)C(=O)NCCCN(C)C)cc1  14.2 µM
84. CCCCC[n+]1ccn(C2=C([O-])c3ccccc3C(=O)/C2=N\S(=O)(=O)c2ccccc2)c1  14.2 µM
85. Cc1cccc(NC(=O)CNC(=O)Cn2ncc(Cl)c(Cl)c2=O)c1C  14.1 µM
86. CCOC(=O)CCc1ccc(NC(=O)/C=C/c2ccc([N+](=O)[O-])o2)cc1  13.9 µM
87. O=[N+]([O-])c1ccc(S(=O)(=O)CC(CN2CCCCC2)N2CCCCC2)cc1 (stereo not drawn)  13.4 µM
88. CC(C)C(=O)N1CCN(c2ccc(NC(=O)c3ccc([N+](=O)[O-])o3)cc2)CC1  12.8 µM
89. CC(=O)N(C)C1=C(N2CCOCC2)C(=O)c2ccccc2C1=O  12.7 µM
90. CC1=CC2/C=C(\C)CCC(O)C(O)/C=C/C(=O)C23C(=O)NC(CC(C)C)C3C1C (stereo not drawn)  12.6 µM
91. CC1CCC(C(C)C)C(OC(=O)Cn2c(-c3ccc(F)cc3)[n+](C)c3ccccc32)C1 (stereo not drawn)  12.5 µM
92. O=C(Nc1ccc(F)cc1)c1nc(S(=O)(=O)Cc2ccccc2)ncc1Cl  12 µM
93. CN1CCN(C2=C(NS(=O)(=O)c3ccccc3)C(=O)c3ccccc3C2=O)CC1  11.2 µM
94. N#CCc1ccc(NC(=O)/C=C/c2ccc([N+](=O)[O-])o2)cc1  10.4 µM
95. CC1CCC(C(C)C)C(OC(=O)Cn2c(-c3ccc(Br)cc3)[n+](C)c3ccccc32)C1 (stereo not drawn)  10.1 µM
96. CN1CCN(c2ccccc2NC(=O)c2ccc([N+](=O)[O-])o2)CC1  10 µM
97. N#C/C(=C(/O)c1ccc([N+](=O)[O-])o1)c1nc2ccccc2[nH]1  9.62 µM
98. O=C(Nc1ccc(N2CCN(C(=O)c3ccccc3)CC2)cc1)c1ccc([N+](=O)[O-])o1  9.02 µM
99. CC(=O)Nc1ccc(S(=O)(=O)NC2=C(N3CCN(C)CC3)C(=O)c3ccccc3C2=O)cc1  8.92 µM
100. CCN1c2ccccc2NC2N=C(OC)C(c3ccccc3)C21 (stereo not drawn)  7.13 µM
101. COc1ccc(C(=O)/C=C/C(=O)N(CC(=O)NC2CCCCC2)Cc2ccccc2)c(O)c1  6.88 µM
102. C=C1C(=O)O[C@@H]2[C@H]1[C@@H](OC(=O)/C(C)=C/C)C/C(C)=C\C(=O)/C=C(\C)[C@@H]2O  6.41 µM
103. CC(=O)Nc1sc(C)c(C)c1C(=O)OCC(=O)N(CC(C)C)c1c(N)n(Cc2ccccc2)c(=O)[nH]c1=O  6.17 µM
104. Cc1ccc(S(=O)(=O)N2CCCCC2)cc1NC(=O)Cn1ncc(Cl)c(Cl)c1=O  6.08 µM
105. O=C1c2cc(F)ccc2-n2c1nc1ccccc1c2=O  4.39 µM
106. CC1C/C(=C\c2cccnc2)C(=O)/C(=C/c2cccnc2)C1 (stereo not drawn)  3.9 µM
107. O=C1/C(=N\S(=O)(=O)c2cccs2)C([n+]2ccccc2)=C([O-])c2ccccc21  3.81 µM
108. CCOC(=O)CSC1=NC(=O)/C(=C/c2ccc(OC)cc2)S1  3.6 µM
